Assay [1] relates to Raji, human Burkitts lymphoma cells. The assay is described as follows: Cell-MTS proliferation assay, Raji. The assay is classed as cell-based. The note with it: 168 hr. The protocol: (§1) The Cell-MTS assay is a 7-day plate-based colorimetric assay which quantifies the amount of newly generated NADH in the presence or absence of test compound. The NADH level is used for the quantification of cancer cell proliferation.
(§2) Established cancer cell lines with a variety of driving mutations were obtained from American Type Culture Collection (ATCC) and routinely passaged according to ATCC protocols. For routine assay, these cells were seeded at densities which enabled ˜90% confluence after 7 days of culture. Raji, human Burkitts lymphoma cells, (cMYC) were seeded at 15,000 cells per 96-well. HL-60, human proleukemia cells, (NRAS, p16, p53, c-Myc amplified) were seeded at 5,000 cells per 96-well. NCI-H460, human non-small cell lung cancer cells, (KRAS, PIK3CA, STLK11, p16) were seeded at 3,000 cells per 96-well. 24 hr after plating, cells received an 11-point dilution of test compound with final concentration ranges from 100 μM to 2.0 nM. […] At the end of this incubation period, 80 μL of media is removed and 20 μL of CellTiter 96® AQueous Non-Radioactive Cell Proliferation Assay soln (Promega) was added. The cells were incubated until the OD490 was >0.6. IC50 values were calculated using the IDBS XLfit software package and include background subtracted OD490 values and normalization to DMSO controls. Cellular proliferation IC50 values were uploaded and archived using the Chem Biography Platform.
(Tetrazolium dyes change colour on reduction, which living cells bring about.)

The subject of assay [2] is HL-60, human proleukemia cells. The assay is described as follows: Cell-MTS proliferation assay, HL-60. The assay is classed as cell-based. The note with it: Cell-MTS, 168 hr, class symbols A/B/C. The protocol: as §1, §2
The target in the next assay is BRD4(BD1) (Homo sapiens (Human), UniProt O60885). In words: In vitro enzyme inhibition assay (BRD4 AlphaScreen). The assay is classed as binding. A digest of the protocol:
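AlphaScreen proximity readout, using streptavidin donor and Ni-chelate acceptor beads at 5 μg/mL final, monitors biotin-H4 tetraacetylated peptide interaction with purified His-tagged BRD4.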
Background: In Alpha technology, singlet oxygen from a donor bead excites a nearby acceptor bead.

The mark [3] stands for this setting: Homo sapiens, Raji, Cell-MTS, class symbols A/B/C.
Setting [4] is: Homo sapiens, Cell-MTS proliferation, Raji cells.
[5] abbreviates: in vitro enzyme inhibition assay.
The mark [6] stands for this setting: Homo sapiens, Raji, Cell-MTS proliferation.

Drawing on patent US10023592B2, “Bromodomain inhibitors” (Celgene Quanticel Research, Inc., priority 2013, dated 2018), this text covers IC50 for 23 compounds.

As usually defined, the IC50 is the midpoint of a concentration-inhibition curve. Read a low IC50 as inhibition by little substance. Consider `Cc1ccc(NS(C)(=O)=O)cc1-c1cn(C)c(=O)c2ccccc12` [Example 39, N-[4-methyl-3-(2-methyl-1-oxoisoquinolin-4-yl)phenyl]methanesulfonamide], for which the IC50 is 500 to 5000 nM in assay [1] (setting [3]); below 500 nM in assay [2] (Homo sapiens, HL-60); below 500 nM on BRD4(BD1) (class symbols A/B/C).
With `Cn1cc(-c2ccc3c(c2)NC(=O)C3)c2ccccc2c1=O` [Example 20, 2-methyl-4-(2-oxo-1,3-dihydroindol-6-yl) isoquinolin-1-one], the concentration for half-maximal inhibition (IC50) in assay [1] (setting [3]) is below 500 nM; in assay [2] (Homo sapiens, HL-60) it was below 500 nM; at BRD4(BD1) (class symbols A/B/C), above 5000 nM.
Regarding `Cn1cc(-c2ccc3c(=O)n(C)cc(-c4cc(NS(C)(=O)=O)c(F)cc4F)c3c2)cn1` [Example 43, N-[2,4-difluoro-5-[2-methyl-6-(1-methylpyrazol-4-yl)-1-oxoisoquinolin-4-yl]phenyl]methane-sulfonamide], the half-inhibitory concentration (IC50) in assay [1] (setting [3]) was below 500 nM; in assay [2] (Homo sapiens, HL-60) it was below 500 nM; on BRD4(BD1) (class symbols A/B/C), below 500 nM.
As for `CCCCc1cnc(NS(=O)(=O)CC)nc1-c1cc(C)c(=O)n(C(C)C)c1` [Example 511, N-[5-butyl-4-(5-methyl-6-oxo-1-propan-2-ylpyridin-3-yl)pyrimidin-2-yl] ethanesulfonamide], the concentration for half-maximal inhibition (IC50) (in assay [1] (setting [4]); against BRD4(BD1) (setting [5])) was below 500 nM each time.
For the compound `[2H]C([2H])([2H])n1cc(-c2cc(S(=O)(=O)CC)ccc2OCC2CC2)c(C)cc1=O` [Example 457, 5-[2-(cyclopropylmethoxy)-5-ethylsulfonylphenyl]-1-(^2H3)methyl-4-methylpyridin-2-one], the concentration for half-maximal inhibition (IC50) (in assay [1] (setting [4]); at BRD4(BD1) (setting [5])) was below 500 nM throughout.
For the compound `CCNS(=O)(=O)c1cccc(-c2cn(C)c(=O)c3cc(F)ccc23)c1` [Example 59, N-ethyl-3-(7-fluoro-2-methyl-1-oxoisoquinolin-4-yl) benzenesulfonamide], the half-maximal inhibitory concentration (IC50) in assay [1] (Cell-MTS, class symbols A/B/C) is 500 to 5000 nM; in assay [2], 500 to 5000 nM; on BRD4(BD1) (class symbols A/B/C) it was 500 to 5000 nM.
With `Cn1cc(-c2cccc(S(=O)(=O)NCCO)c2)c2ccccc2c1=O` [Example 22, N-(2-hydroxyethyl)-3-(2-methyl-1-oxoisoquinolin-4-yl)benzenesulfonamide], the IC50 lay in the range of 500 to 5000 nM in assay [1] (setting [3]); 500 to 5000 nM in assay [2] (Homo sapiens, HL-60); 500 to 5000 nM against BRD4(BD1) (class symbols A/B/C).
On to `Cn1cc(-c2cc(NS(C)(=O)=O)ccc2F)c2ccccc2c1=O` [Example 34, N-[4-fluoro-3-(2-methyl-1-oxoisoquinolin-4-yl)phenyl] methanesulfonamide], for which the IC50 was below 500 nM in assay [1] (setting [3]); below 500 nM in assay [2] (Homo sapiens, HL-60); below 500 nM against BRD4(BD1) (class symbols A/B/C).
As to `Cn1cc(-c2cc(F)cc(NS(C)(=O)=O)c2)c2ccccc2c1=O` [Example 36, N-[3-fluoro-5-(2-methyl-1-oxoisoquinolin-4-yl)phenyl] methanesulfonamide], the IC50 lay in the range of 500 to 5000 nM in assay [1] (setting [3]); 500 to 5000 nM in assay [2] (Homo sapiens, HL-60); 500 to 5000 nM on BRD4(BD1) (class symbols A/B/C).
On to `COc1ccc(-c2cn(C)c(=O)c3ccccc23)cc1S(=O)(=O)NCc1ccccc1` [Example 15, N-benzyl-2-methoxy-5-(2-methyl-1-oxoisoquinolin-4-yl)benzenesulfonamide], for which the concentration for half-maximal inhibition (IC50) is below 500 nM in assay [1] (setting [3]); 500 to 5000 nM in assay [2] (Homo sapiens, HL-60); 500 to 5000 nM against BRD4(BD1) (class symbols A/B/C).
On to `Cn1cc(-c2cccc(S(=O)(=O)N3CCCC3)c2)c2ccccc2c1=O` [Example 7, 2-methyl-4-(3-pyrrolidin-1-yl-sulfonylphenyl)isoquinolin-1-one], for which the 50% inhibitory concentration (IC50) in assay [1] (setting [3]) was below 500 nM; in assay [2] (Homo sapiens, HL-60), 500 to 5000 nM; against BRD4(BD1) (class symbols A/B/C), 500 to 5000 nM.
Consider `Cn1cc(-c2cc(NS(C)(=O)=O)ccc2Cl)c2ccccc2c1=O` [Example 38, N-[4-chloro-3-(2-methyl-1-oxoisoquinolin-4-yl)phenyl] methanesulfonamide], for which the IC50 was 500 to 5000 nM in assay [1] (setting [3]); below 500 nM in assay [2] (Homo sapiens, HL-60); below 500 nM against BRD4(BD1) (class symbols A/B/C).
Consider `CCC1Cc2cc(S(C)(=O)=O)cc(-c3cn(C)c(=O)c4ccccc34)c2O1` (stereo not drawn) [Example 494, 4-(2-ethyl-5-methylsulfonyl-2,3-dihydro-1-benzofuran-7-yl)-2-methylisoquinolin-1-one], for which the IC50 in assay [1] (setting [4]) was 500 to 5000 nM; at BRD4(BD1) (setting [5]) it was below 500 nM.
`Cn1cc(-c2nc(CS(C)(=O)=O)ncc2Oc2ccc(F)cc2F)c2ccccc2c1=O` [Example 148, 4-[5-(2,4-difluorophenoxy)-2-(methylsulfonylmethyl)pyrimidin-4-yl]-2-methylisoquinolin-1-one]: the IC50 in assay [1] (setting [6]) is above 5000 nM; against BRD4(BD1) (setting [5]), below 500 nM.
In the case of `CCNS(=O)(=O)c1cccc(-c2cn(C)c(=O)c3cnccc23)c1` [Example 53, N-ethyl-3-(2-methyl-1-oxo-2,7-naphthyridin-4-yl) benzenesulfonamide], the 50% inhibitory concentration (IC50) is above 5000 nM in assay [1] (Cell-MTS, class symbols A/B/C); above 5000 nM in assay [2]; 500 to 5000 nM at BRD4(BD1) (class symbols A/B/C).
For `CCS(=O)(=O)c1ccc(O[C@H]2CC[C@H](O)CC2)c(-c2cn(C)c(=O)c3cc(F)ccc23)c1` [Example 189, 4-[5-ethylsulfonyl-2-(trans-4-hydroxycyclohexyl)oxyphenyl]-7-fluoro-2-methylisoquinolin-1-one], the IC50 (in assay [1] (setting [6]); against BRD4(BD1) (setting [5])) was below 500 nM throughout.
As to `CCS(=O)(=O)c1ccc(OCC2CC2)c(-c2cc(OCC(F)(F)F)c(=O)n(C)c2)c1` [Example 288, 5-[2-(cyclopropylmethoxy)-5-ethylsulfonylphenyl]-1-methyl-3-(2,2,2-trifluoroethoxy)pyridin-2-one], the IC50 in assay [1] (setting [6]) is 500 to 5000 nM; against BRD4(BD1) (setting [5]), below 500 nM.
In the case of `Cn1cc(-c2cc(S(C)(=O)=O)ccc2OCC2CC2)c2c(c1=O)CCC2` [Example 504, 4-[2-(cyclopropylmethoxy)-5-methylsulfonylphenyl]-2-methyl-6,7-dihydro-5H-cyclopenta[c]pyridin-1-one], the IC50 (in assay [1] (setting [4]); against BRD4(BD1) (setting [5])) was below 500 nM each time.
As to `CCS(=O)(=O)Nc1ncc(Oc2ccc(F)cc2F)c(-c2cc(C)c(=O)n(C(C)C)c2)n1` [Example 509, N-[5-(2,4-difluorophenoxy)-4-(5-methyl-6-oxo-1-propan-2-ylpyridin-3-yl)pyrimidin-2-yl]ethanesulfonamide], the IC50 (in assay [1] (setting [4]); on BRD4(BD1) (setting [5])) was below 500 nM in each case.
In the case of `CCS(=O)(=O)c1ccc(O[C@H]2CC[C@H](O)CC2)c(-c2cn(C)c(=O)c3ccc(F)cc23)c1` [Example 188, 4-[5-ethylsulfonyl-2-(trans-4-hydroxycyclohexyl)oxyphenyl]-6-fluoro-2-methylisoquinolin-1-one], the IC50 (in assay [1] (setting [6]); at BRD4(BD1) (setting [5])) was below 500 nM in each case.
In the case of `Cn1cc(-c2cccc(S(N)(=O)=O)c2)c2ccc(F)cc2c1=O` [Example 61, 3-(7-fluoro-2-methhyl-1-oxoisoquinolin-4-yl) benzenesulfonamide], the IC50 in assay [1] (setting [3]) is 500 to 5000 nM; in assay [2] (Homo sapiens, HL-60), 500 to 5000 nM.
As to `CCNS(=O)(=O)c1cccc(-c2cn(C)c(=O)c3ccc(F)cc23)c1` [Example 49, N-ethyl-3-(6-fluoro-2-methyl-1-oxoisoquinolin-4-yl) benzenesulfonamide], the IC50 in assay [1] (Cell-MTS, class symbols A/B/C) is 500 to 5000 nM; in assay [2] it was 500 to 5000 nM.
As for `CCCCc1cnc(NS(=O)(=O)CC)nc1-c1cc(C(C)C)c(=O)n(C)c1` [Example 512, N-[5-butyl-4-(1-methyl-6-oxo-5-propan-2-ylpyridin-3-yl)pyrimidin-2-yl] ethanesulfonamide], the 50% inhibitory concentration (IC50) (in assay [1] (setting [4]); against BRD4(BD1) (setting [5])) was below 500 nM throughout.
